{"source": "patent US9522908B2", "about": "“Ezrin inhibitors and methods of making and using” (Georgetown University, priority 2010, dated 2016)", "key": {"actin": {"target": "actin", "assay": "SPR binding to actin (negative control)", "conditions": "data not shown"}, "zebrafish embryos": {"tested_on": "zebrafish embryos", "assay": "Zebrafish embryo development assay", "assay_type": "in vivo, Zebrafish (Danio rerio)", "method": "Animals. Zebrafish (Danio rerio) were raised, maintained and crossed as described before (Westerfield, M. University of Oregon Press, Eugene. Or., 1993). Development of embryos was studied at 28° C. and staging was determined by morphological characteristics (Kimmel, C. B., et al., Dev. Dyn. 203, 253-310 (1995)).\nA translation blocking anti-ezrin morpholino oligonucleotide (MO), described and validated by Link et al. (Link, V., et al., J. Cell Sci., 119, 2073-2083 (2006)), MO1, 5′-[…] (SEQ ID NO:1), was synthesized by Gene-Tools, LCC (Philomath, Oreg.). MOs were microinjected into one to four cell stage embryos.\nZebrafish embryos were arrayed, three per well, in 96-well plates. Compounds were added at 1-33 μM concentrations. Embryos were observed, and photographed, at 70% epiboly, 24-28 hours post fertilization (hpf) and 48 hpf."}, "[1]": {"tested_on": "GFP expressing K7M2 OS cells", "assay": "Pulmonary metastasis assay (PuMA), lung organ culture", "parameters": "species or system mice", "conditions": "10 μM", "method": "FIG. 5 illustrates NSC305787 and NSC668394 inhibit OS metastatic growth in lung organ culture. GFP expressing K7M2 OS cells (2×10^5) were injected to tail vein of female BALB/c mice. Within 15 min of tumor cells injection, mice were euthanized and lungs were injected with a mixed agarose/medium solution and then were removed. Complete transverse sections (1-2 mm in thickness) were made from each lobe and 4-5 lung sections were placed on a single 1.5×0.7 cm sterile Gelfoam section. Lung sections were incubated at 37° C. in humidified conditions of 5% CO2. Fresh medium or small molecules (10 μM) were replaced every other day. (A) Quantitation of the fluorescence signal from NSC305787 (10 μM) and NSC668394 (10 μM) treated organ cultures over time. Metastatic burden was quantified by measuring the fluorescent area of metastatic cells in each lung section at each time point and was expressed as mean fluorescent area (mean fluorescent area of each lung section over 4 lung sections). Mean fluorescent area was normalized to 100 pixels for day 0 to allow quantitative evaluation of metastatic progression over time. Data are represented as mean .s.d. from three independent experiments. (B) Fluorescence pictures of a representative culture treated with 10 μM NSC305787 and 10 μM NSC668394 are given on the right panel. […]"}, "K12 cells": {"tested_on": "K12 cells", "assay": "Invasion of HUVEC monolayer by K12 cells (ECIS, xCELLigence)", "assay_type": "cell-based", "method": "(§1) FIG. 3 illustrates NSC305787 and NSC668394 inhibit ezrin mediated invasion of OS cells. (A) Endogenous ezrin protein levels in K12 and K7M2 cells are shown. Equal loading is determined by blotting with an actin antibody. […] Error bars represent standard deviation from duplicate data points. The experiments were performed in duplicates. Cell index is a measurement parameter with no units. In this assay a decrease in cell index represents invasion of HUVEC layer by OS cells. It is measured according to the following formula: Cell index=((Rt−R0)/F where, Rt is resistance at time point t, R0 is background resistance (measured with media alone, no cells), and F is frequency at which measurement is taken (10 kHz).\n(§2) The anti-invasive potential of NSC305787 and NSC668394 were evaluated by using electric cell impedance sensing (ECIS) on a Roche xCELLigence system (Roche, Indianapolis, Ind.). Briefly, HUVEC cells (25,000/well) were seeded in a 96-well plate in EGM-2 media (Lonza, Basel, CH). Following formation of a confluent HUVEC monolayer (app 32 hrs), EGM-2 media was aspirated and a layer of OS cells (10,000 cells/well) was added in DMEM media containing the compounds. This time point was accepted as 0 hr of treatment and invasion was monitored during the following 6 hrs by measuring changes in resistance at the cell-electrode interphase."}, "MNNG, human OS cells": {"tested_on": "MNNG, human OS cells", "assay": "In vivo experimental lung metastasis model, ezrin independent MNNG cells", "parameters": "species or system mice", "method": "FIG. 6 illustrates NSC305787 and NSC668394 inhibit in vivo OS metastatic growth in lungs. (A) K7M2 metastatic OS tumor cells (1×10^6) were injected via tail vein. Vehicle (1% DMSO), NSC305787 (240 μg/kg) and NSC668394 (226 μg/kg) were injected 5 days a week intraperitoneally. Kaplan-Meier survival curves show percent survival for NSC305787 and NSC668394 treatment over time. Median survival of vehicle, NSC305787 and NSC668394 treated K7M2 cells were 28.5, 50, and 49 days after tumor cell injection. […] (B) Fluorescence pictures of whole lungs are given. […] (C) GFP expressing ezrin independent MNNG, human OS cells were injected to mice and treated with vehicle (1% DMSO), NSC305787 (240 μg/kg) and NSC668394 (226 μg/kg). Survival of each group is not different probably because MNNG is an ezrin independent cell line. Median survival of vehicle, NSC305787 and NSC668394 treated MNNG cells were 50.5, 49, and 48.5 days after tumor cell injection. (D) Fluorescent images of the lung tissues of this group are given.\nGFP expressing K7M2 or MNNG tumor cells (1×10^6) were delivered by tail vein to nude mice. One day after injection, vehicle, NSC305787 (240 μg/kg/inj) and […] (226 μg/kg/inj) were injected 5 days a week intraperitoneally."}, "K7M2 cells": {"tested_on": "K7M2 cells", "assay": "Invasion of HUVEC monolayer by K7M2 cells (ECIS, xCELLigence)", "assay_type": "cell-based", "conditions": "1 μM and 10 μM, vs control 1% DMSO", "method": "as §1, §2"}}}
{"smiles": "OC(c1cc(C23CC4CC(CC(C4)C2)C3)nc2c(Cl)cc(Cl)cc12)C1CCCCN1", "note": "(stereo not drawn) [NSC305787]", "values": [{"measurement": "Kd", "setting": "actin", "value": 91.4, "unit": "µM"}, {"measurement": "embryos with epiboly defects", "setting": "zebrafish embryos; 10 μM", "value": 15, "unit": "%"}, {"measurement": "embryos with epiboly defects", "setting": "zebrafish embryos; 20 μM", "value": 100, "unit": "%"}, {"measurement": "lung metastasis of K7M2 cells in lung organ culture (GFP fluorescence)", "setting": "[1]", "value": "significantly inhibited"}, {"measurement": "invasion of K12 cells", "setting": "K12 cells; 1 μM", "value": "did not have any effect"}, {"measurement": "invasion of K12 cells", "setting": "K12 cells; 10 μM", "value": "did not have any effect"}, {"measurement": "number of GFP expressing metastatic foci in lung tissues", "setting": "MNNG, human OS cells; MNNG cells", "value": "not a significant difference"}, {"measurement": "median survival after tumor cell injection", "setting": "MNNG, human OS cells; MNNG cells by tail vein, i.p. 5 days a week, vehicle 50.5 days", "value": 49, "unit": "days"}, {"measurement": "invasion of K7M2 cells through HUVEC monolayer", "setting": "K7M2 cells", "value": "inhibited invasion"}]}
